Key:
Assay in all cases: MIC by broth microdilution (NCCLS M7-A5)
Acinetobacter sp. J2 = details: Acinetobacter baumannii J2
[1] = test system: Pseudomonas aeruginosa MK1184
[2] = test system: Pseudomonas aeruginosa 1973E
Enterobacter cloacae P99 = test system: Enterobacter cloacae P99
[3] = test system: Klebsiella pneumoniae CF104
Serratia marcescens S6 = test system: Serratia marcescens S6
[4] = test system: Stenotrophomonas malthophilia 1AC736; details: Stenotrophomonas maltophilia 1AC736
[5] = + 206 + clavulanate, 4 mg/L each
[6] = + 315 + clavulanate, 4 mg/L each
[7] = + 102 + clavulanate, 4 mg/L each
[8] = + 324 + clavulanate, 4 mg/L each
[9] = MIC of antibiotic 1 with the labelled bridged monobactam of formula II and clavulanate, 4 mg/L each

MIC of antibiotic (Acinetobacter sp. J2; [5]) [µg/mL]	MIC of antibiotic (Acinetobacter sp. J2; antibiotic alone) [µg/mL]	MIC of antibiotic [1, 5] [µg/mL]	MIC of antibiotic ([1]; antibiotic alone) [µg/mL]	MIC of antibiotic ([2]; antibiotic alone) [µg/mL]	MIC of antibiotic (Enterobacter cloacae P99; [5]) [µg/mL]	MIC of antibiotic (Enterobacter cloacae P99; antibiotic alone) [µg/mL]	MIC of antibiotic ([3]; antibiotic alone) [µg/mL]	MIC of antibiotic (Serratia marcescens S6; antibiotic alone) [µg/mL]	MIC of antibiotic [4, 5] [µg/mL]	MIC of antibiotic ([4]; antibiotic alone) [µg/mL]	MIC of antibiotic (Acinetobacter sp. J2; [7]) [µg/mL]	MIC of antibiotic [1, 7] [µg/mL]	MIC of antibiotic [2, 7] [µg/mL]	MIC of antibiotic (Enterobacter cloacae P99; [7]) [µg/mL]	MIC of antibiotic [3, 7] [µg/mL]	MIC of antibiotic (Serratia marcescens S6; [7]) [µg/mL]	MIC of antibiotic [4, 7] [µg/mL]	SMILES	also measured
	>32		8	4		>32	>32	0.13		0.5	4	4	4	8	0.25	0.25	1	C[C@H]1[C@H](NC(=O)/C(=N\OCc2cc(=O)c(O)cn2O)c2csc(N)n2)C(=O)N1OCC(=O)O [Compound 22, 2-((3S,4S)-3-{(2Z)-2-(2-amino(1,3-thiazol-4-yl))-3-[(1,5-dihydroxy-4-oxo(2-hydropyridyl))methoxy]-3-azaprop-2-enoylamino}-4-methyl-2-oxoazetidinyloxy)acetic acid]	
	16		8	8		>32	>32	0.25		1	8	8	8	8	1	0.25		C[C@H](ON1C(=O)[C@@H](NC(=O)/C(=N\OCc2cc(=O)c(O)cn2O)c2csc(N)n2)[C@@H]1C)C(=O)O [Compound 23, (2S)-2-((3S,4S)-3-{(2Z)-2-(2-amino(1,3-thiazol-4-yl))-3-[(1,5-dihydroxy-4-oxo(2-hydropyridyl))methoxy]-3-azaprop-2-enoylamino}-4-methyl-2-oxoazetidinyloxy)propanoic acid]	MIC of antibiotic (Acinetobacter sp. J2; [8]): 8 µg/mL; MIC of antibiotic (Acinetobacter sp. J2; + 324 + sulbactam, 4 mg/L each): 2 µg/mL; MIC of antibiotic [1, 8]: 8 µg/mL; MIC of antibiotic ([1]; + 324 + sulbactam, 4 mg/L each): 8 µg/mL; MIC of antibiotic [2, 8]: 16 µg/mL; MIC of antibiotic ([2]; + 324 + sulbactam, 4 mg/L each): 16 µg/mL; MIC of antibiotic (Enterobacter cloacae P99; [8]): 4 µg/mL; MIC of antibiotic (Enterobacter cloacae P99; + 324 + sulbactam, 4 mg/L each): 8 µg/mL; MIC of antibiotic [3, 8]: 1 µg/mL; MIC of antibiotic ([3]; + 324 + sulbactam, 4 mg/L each): 2 µg/mL; MIC of antibiotic (Serratia marcescens S6; [8]): 0.25 µg/mL; MIC of antibiotic (Serratia marcescens S6; + 324 + sulbactam, 4 mg/L each): 0.5 µg/mL
	>32		>32	16		>32	>32	1		4	16	4	4	8	0.5	1	1	NC(=O)OCC1C(NC(=O)C(=NOCc2cc(=O)c(O)cn2O)c2csc(N)n2)C(=O)N1OS(=O)(=O)O (stereo not shown) [Compound 25]	MIC of antibiotic (Acinetobacter sp. J2; [8]): >32 µg/mL; MIC of antibiotic [1, 8]: 8 µg/mL; MIC of antibiotic [2, 8]: 8 µg/mL; MIC of antibiotic (Enterobacter cloacae P99; [8]): 4 µg/mL; MIC of antibiotic [3, 8]: 0.5 µg/mL; MIC of antibiotic (Serratia marcescens S6; [8]): 1 µg/mL; MIC of antibiotic [4, 8]: 1 µg/mL

More lines, now with the values behind:

SMILES	MIC of antibiotic (Acinetobacter sp. J2; [5]) [µg/mL]	MIC of antibiotic (Acinetobacter sp. J2; antibiotic alone) [µg/mL]	MIC of antibiotic [1, 5] [µg/mL]	MIC of antibiotic ([1]; antibiotic alone) [µg/mL]	MIC of antibiotic ([2]; antibiotic alone) [µg/mL]	MIC of antibiotic (Enterobacter cloacae P99; [5]) [µg/mL]	MIC of antibiotic (Enterobacter cloacae P99; antibiotic alone) [µg/mL]	MIC of antibiotic ([3]; antibiotic alone) [µg/mL]	MIC of antibiotic (Serratia marcescens S6; antibiotic alone) [µg/mL]	MIC of antibiotic [4, 5] [µg/mL]	MIC of antibiotic ([4]; antibiotic alone) [µg/mL]	MIC of antibiotic (Acinetobacter sp. J2; [7]) [µg/mL]	MIC of antibiotic [1, 7] [µg/mL]	MIC of antibiotic [2, 7] [µg/mL]	MIC of antibiotic (Enterobacter cloacae P99; [7]) [µg/mL]	MIC of antibiotic [3, 7] [µg/mL]	MIC of antibiotic (Serratia marcescens S6; [7]) [µg/mL]	MIC of antibiotic [4, 7] [µg/mL]	also measured
CC1C(NC(=O)C(=NOCc2cc(=O)c(O)cn2O)c2nsc(N)n2)C(=O)N1S(=O)(=O)O (stereo not shown) [Compound 2]	16	4	16	8	8	16	>32	>32	>32	0.5	4								
C[C@H]1[C@H](NC(=O)/C(=N\OCc2cc(=O)c(O)cn2C)c2csc(N)n2)C(=O)N1S(=O)(=O)O [Compound 6, (3S,4S)-3-{(2Z)-2-(2-amino(1,3-thiazol-4-yl))-3-[(5-hydroxy-1-methyl-4-oxo(2-hydropyridyl))methoxy]-3-azaprop-2-enoylamino}-4-methyl-2-oxoazetidinesulfonic acid]	32		>32			16				4									MIC of antibiotic (Acinetobacter sp. J2; [6]): >32 µg/mL; MIC of antibiotic [1, 6]: >32 µg/mL; MIC of antibiotic [2, 5]: >32 µg/mL; MIC of antibiotic [2, 6]: >32 µg/mL; MIC of antibiotic (Enterobacter cloacae P99; [6]): 4 µg/mL; MIC of antibiotic [3, 5]: 0.5 µg/mL; MIC of antibiotic [3, 6]: 0.5 µg/mL; MIC of antibiotic (Serratia marcescens S6; [5]): 4 µg/mL; MIC of antibiotic (Serratia marcescens S6; [6]): 4 µg/mL; MIC of antibiotic [4, 6]: 2 µg/mL
Nc1nc(C(=NOCc2cc(=O)c(O)cn2O)C(=O)NC2CN(S(=O)(=O)O)C2=O)cs1 (stereo not shown) [Compound 9]		>32		>32	8		>32	>32	16		0.5	>32	4	8	32	0.5	1	0.25	
CC1C(NC(=O)C(=NOCc2cc(=O)c(O)cn2O)c2noc(N)n2)C(=O)N1S(=O)(=O)O (stereo not shown) [Compound 16]		>32		>32	>32		>32	>32	>32		>32	16	16	16	>32	32	>32	2	
CC1C(NC(=O)C(=NOCc2cc(=O)c(O)cn2O)c2cccc(N)n2)C(=O)N1S(=O)(=O)O (stereo not shown) [Compound 20]	>32	>32	>32	>32	16	16	>32	>32	4	0.5	4	>32	8	32	16	2	0.5	0.25	MIC of antibiotic (Acinetobacter sp. J2; + 501 4 mg/L): <0.06 µg/mL; MIC of antibiotic (Acinetobacter sp. J2; + clavulanate 4 mg/L): >32 µg/mL; MIC of antibiotic ([1]; + 501 4 mg/L): >32 µg/mL; MIC of antibiotic ([1]; + clavulanate 4 mg/L): >32 µg/mL; MIC of antibiotic [2, 5]: 16 µg/mL; MIC of antibiotic ([2]; + 501 4 mg/L): 16 µg/mL; MIC of antibiotic ([2]; + clavulanate 4 mg/L): 16 µg/mL; MIC of antibiotic (Enterobacter cloacae P99; + 501 4 mg/L): >32 µg/mL; MIC of antibiotic (Enterobacter cloacae P99; + clavulanate 4 mg/L): >32 µg/mL; MIC of antibiotic [3, 5]: 4 µg/mL; MIC of antibiotic ([3]; + 501 4 mg/L): 16 µg/mL; MIC of antibiotic ([3]; + clavulanate 4 mg/L): 32 µg/mL; MIC of antibiotic (Serratia marcescens S6; [5]): 0.5 µg/mL; MIC of antibiotic (Serratia marcescens S6; + 501 4 mg/L): 2 µg/mL; MIC of antibiotic (Serratia marcescens S6; + clavulanate 4 mg/L): 2 µg/mL; MIC of antibiotic ([4]; + 501 4 mg/L): 0.25 µg/mL; MIC of antibiotic ([4]; + clavulanate 4 mg/L): 0.25 µg/mL
C[C@H]1[C@H](NC(=O)/C(=N\OCc2cc(=O)c(O)cn2O)c2nccc(N)n2)C(=O)N1S(=O)(=O)O [Compound 21, (3S,4S)-3-{(2Z)-2-(4-aminopyrimidin-2-yl)-3-[(1,5-dihydroxy-4-oxo(2-hydropyridyl))methoxy]-3-azaprop-2-enoylamino}-4-methyl-2-oxoazetidinesulfonic acid]		>32		>32	8		>32	>32	8		8								MIC of antibiotic (Acinetobacter sp. J2; + 102 + sulbactam, 4 mg/L each): 2 µg/mL; MIC of antibiotic (Acinetobacter sp. J2; + 324 + sulbactam, 4 mg/L each): 2 µg/mL; MIC of antibiotic ([1]; + 102 + sulbactam, 4 mg/L each): 32 µg/mL; MIC of antibiotic ([1]; + 324 + sulbactam, 4 mg/L each): 32 µg/mL; MIC of antibiotic ([2]; + 102 + sulbactam, 4 mg/L each): 16 µg/mL; MIC of antibiotic ([2]; + 324 + sulbactam, 4 mg/L each): 16 µg/mL; MIC of antibiotic (Enterobacter cloacae P99; + 102 + sulbactam, 4 mg/L each): 32 µg/mL; MIC of antibiotic (Enterobacter cloacae P99; + 324 + sulbactam, 4 mg/L each): 8 µg/mL; MIC of antibiotic ([3]; + 102 + sulbactam, 4 mg/L each): 2 µg/mL; MIC of antibiotic ([3]; + 324 + sulbactam, 4 mg/L each): 4 µg/mL; MIC of antibiotic (Serratia marcescens S6; + 102 + sulbactam, 4 mg/L each): 16 µg/mL; MIC of antibiotic (Serratia marcescens S6; + 324 + sulbactam, 4 mg/L each): 4 µg/mL; MIC of antibiotic ([4]; + 102 + sulbactam, 4 mg/L each): 8 µg/mL; MIC of antibiotic ([4]; + 324 + sulbactam, 4 mg/L each): 4 µg/mL
Nc1nc(CC(=O)N2CC[C@@H]3[C@H]2C(=O)N3S(=O)(=O)O)cs1 [Compound 401]																			MIC of antibiotic at fixed inhibitor concentration (4 mg/L) [2, 9]: 3 µg/mL; MIC of antibiotic at fixed inhibitor concentration (4 mg/L) [3, 9]: 35 µg/mL; MIC of antibiotic at fixed inhibitor concentration (4 mg/L) (Serratia marcescens S6; [9]): 3.125 µg/mL

Source: patent US9346799B2, “Useful combinations of monobactam antibiotics with beta-lactamase inhibitors” (Basilea Pharmaceutica AG, priority 2005, dated 2016)
